Data set [1] in a line: Inhibition of beta-hematin polymerization after 24 hr by spectrophotometric analysis. It is filed as physicochemical.
Data set [2] relates to Plasmodium falciparum. Put plainly: Antiplasmodial activity against chloroquine-sensitive Plasmodium falciparum after 30 to 34 hr by schizont maturation assay. It is filed as functional, organism-based.
The subject of data set [3] is Plasmodium falciparum. Nature of the data set: Antiplasmodial activity against chloroquine-sensitive Plasmodium falciparum assessed as vacuolar accumulation ratio. It is filed as functional.

Here are results for four molecules from ChEMBL document CHEMBL3046805, “Synthesis and antimalarial evaluation of novel pyridine quinoline hybrids” (Med Chem Res, 2008).

pIC50: −log10 of the molar value.

In the case of `CCN(CC)CCCC(C)Nc1ccnc2cc(Cl)ccc12` (stereo not given) [CHLOROQUINE], in data set [1], the pIC50 (commonly −log10 of the IC50, conventionally taken in molar units) is 2.72.

`Brc1cc2c(c3ncccc13)Oc1ncccc1O2`: the pIC50 in the data set on Plasmodium falciparum [2] was 5.19; in data set [1], 2.66. For the same molecule, in the data set on Plasmodium falciparum [3], the Ratio was 1.03.

In the case of `Brc1cc2c(c3ncccc13)Oc1cc(Br)c3cccnc3c1O2`, the pIC50 in the data set with Plasmodium falciparum [2] was 5.13; in data set [1], 2.56. Besides, the Ratio with Plasmodium falciparum [3] is reported as 1.01.

On to `Clc1ncccc1Oc1cc2c(c3ncccc13)Oc1ncccc1O2`, for which the pIC50 in the data set on Plasmodium falciparum [2] was 5.43; in data set [1], 2.68. Moreover, the Ratio with Plasmodium falciparum [3] was determined as 1.2.
